# Experiments:
# [1] = tested on: cervical epithelioid carcinoma (HeLa); test: MTT cytotoxicity assay, HeLa; format: cell-based, human; settings: 72 h of incubation
# [2] = tested on: hepatocellular carcinoma (HepG2); test: MTT cytotoxicity assay, HepG2; format: cell-based, human; settings: 72 h of incubation
# H1975 = test: MTT cytotoxicity assay, H1975; format: cell-based, human; settings: 72 h of incubation
# breast carcinoma (MCF-7) = test: MTT cytotoxicity assay, MCF-7; format: cell-based, human; settings: 72 h of incubation
# lung carcinoma (HCC827) = test: MTT cytotoxicity assay, HCC827; format: cell-based, human; settings: 72 h of incubation
# [3] = tested on: human nasopharyngeal carcinoma (HONE1); test: MTT cytotoxicity assay, HONE1; format: cell-based; settings: 72 h of incubation
# [4] = tested on: human nasopharyngeal carcinoma (SUNE1); test: MTT cytotoxicity assay, SUNE1; format: cell-based; settings: 72 h of incubation
# [5] = Reactivity towards physiological thiols (ESI-MS monitoring of reaction with GSH); format: physicochemical; settings: GSH […]10^−5M or 5×10^−5M, about 45 min
# Procedure: FIGS. 6A-C show stability tests: (A) UV/vis absorption of 1 in PBS (containing 5% acetonitrile, v/v) at different time point; (B) Linear response of ESI-MS intensity of 1 versus concentration; (C) Kinetics analysis of reaction of 1 with GSH, auranofin was used as a reference compound. Unreacted compound percentage was calculated by combined MS intensity of each 10 scans at different time point then divided by pre-determined MS intensity of initial concentration. It was believed that high reactivity of the gold(I) anticancer drugs towards physiological thiols may fail the drugs targeting to the solid tumor tissue thus hamper the application for in vivo cancer treatment. As a result, high resolution ESI-MS was applied to monitor the reaction of 1 with thiol-containing GSH.
smiles,measurement,setting,value
"CCN(CC)C1=[S+][Au-][P+](c2ccccc2)(c2ccccc2)C[P+](c2ccccc2)(c2ccccc2)[Au-][S]1.O=S(=O)(O)C(F)(F)F [Compound 4, [Au2-dppm-dedt] (OTf)]",IC50,[1],0.63 µM
same,IC50,[2],0.95 ± 0.58 µM
same,IC50,H1975,< 0.19 µM
same,IC50,breast carcinoma (MCF-7),0.5 ± 0.06 µM
same,IC50,lung carcinoma (HCC827),0.48 ± 0.06 µM
same,IC50,[3],0.59 ± 0.04 µM
same,IC50,[4],1.62 ± 0.44 µM
"CC(=O)OC[C@H]1O[C@@H]([S-])[C@H](OC(C)=O)[C@@H](OC(C)=O)[C@@H]1OC(C)=O.CCP(CC)CC.[Au+] [auranofin, reference compound]",reaction towards GSH (reference compound),[5],fast reaction towards GSH
"CCN(CC)C1=[S+][Au-][P+](C2CCCCC2)(C2CCCCC2)C[P+](C2CCCCC2)(C2CCCCC2)[Au-][S]1.O=S(=O)(O)C(F)(F)F [Compound 3, [Au2-dcpm-dedt] (OTf)]",IC50,[1],< 0.39 µM
same,IC50,[2],0.54 ± 0.07 µM
same,IC50,breast carcinoma (MCF-7),0.41 ± 0.2 µM
same,IC50,[3],0.41 ± 0.07 µM
same,IC50,[4],0.67 ± 0.28 µM
